Data as given in US12558428B2, “Heterobifunctional compounds and their use in treating disease” (Halda Therapeutics OpCo, Inc., priority 2024, dated 2026).

Test system: T-Rex 293 cells having increased expression of estrogen receptor alpha protein
Test: Cellular growth inhibition assay, T-Rex 293 cells, (+) doxycycline
Format: cell-based
Conditions: T-REx-293, 72 h, Table 7-A; T-Rex 293 cells with doxycycline (increased ERα expression); 72 hours; CellTiter-Glo; read-out: (+) Dox GI50
In short: (§1)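 Cells of an inducible ERα-expressing T-Rex 293 clone are seeded in charcoal-dextran FBS medium with or without 3 ng/mL doxycycline, then treated after 24 h with compound dilutions (0.5% DMSO) for 72 h. Growth inhibition is measured by CellTiter-Glo luminescence and expressed as GI50.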

Compound | GI50 [nM]
CC1=C(c2c(F)cc(F)cc2F)[C@H](c2ccc(OCCN3CCC[C@@]4(CCN(c5ccc(C6=N[C@@H](C)c7nnc(C)n7-c7sc(C)c(C)c76)cc5)C4)C3)cc2)Oc2ccc(O)cc21 [V-8] | < 50
CC1=C(c2c(F)cc(F)cc2F)[C@@H](c2ccc(OCCN3CCC[C@]4(CCN(c5ccc(C6=N[C@@H](C)c7nnc(C)n7-c7sc(C)c(C)c76)cc5)C4)C3)cc2)Oc2ccc(O)cc21 [V-9] | > 2500
CC1=C(c2c(F)cc(F)cc2F)[C@@H](c2ccc(OCCN3CCC[C@@]4(CCN(c5ccc(C6=N[C@@H](C)c7nnc(C)n7-c7sc(C)c(C)c76)cc5)C4)C3)cc2)Oc2ccc(O)cc21 [V-10] | 500 to 2500
CC1=C(c2c(F)cc(F)cc2F)C(c2ccc(N3CCN(CC4CCN(c5ccc(C6=N[C@@H](C)c7nnc(C)n7-c7sc(C)c(C)c76)cc5)CC4)CC3)cc2)Oc2ccc(O)cc21 (stereo partly drawn) [V-11] | 50 to 500
CC1=C(c2c(F)cc(F)cc2F)[C@H](c2ccc(C3CCN(CC4CCN(c5ccc(C6=N[C@@H](C)c7nnc(C)n7-c7sc(C)c(C)c76)cc5)CC4)CC3)cc2)Oc2ccc(O)cc21 [V-12] | < 50
CC1=C(c2c(F)cc(F)cc2F)[C@@H](c2ccc(C3CCN(CC4CCN(c5ccc(C6=N[C@@H](C)c7nnc(C)n7-c7sc(C)c(C)c76)cc5)CC4)CC3)cc2)Oc2ccc(O)cc21 [V-13] | 50 to 500
CC1=C(c2c(F)cc(F)cc2F)[C@@H](c2ccc(N3CCN(C(=O)C4CCN(c5ccc(C6=N[C@@H](C)c7nnc(C)n7-c7sc(C)c(C)c76)cc5)CC4)CC3)cc2)Oc2ccc(O)cc21 [V-14] | 50 to 500
CC1=C(c2c(F)cc(F)cc2F)[C@H](c2ccc(N3CCN(C(=O)C4CCN(c5ccc(C6=N[C@@H](C)c7nnc(C)n7-c7sc(C)c(C)c76)cc5)CC4)CC3)cc2)Oc2ccc(O)cc21 [V-15] | < 50
CC1=C(c2c(F)cc(F)cc2F)C(c2ccc(OCCN3CCC4(CC3)CCN(c3ccc(C5=N[C@@H](C)c6nnc(C)n6-c6sc(C)c(C)c65)cc3)C4)cc2)Oc2ccc(O)cc21 (stereo partly drawn) [V-16] | 500 to 2500
CC1=C(c2c(F)cc(F)cc2F)C(c2ccc(N3CCC4(CCCN(CCOc5ccc(C6=N[C@@H](C)c7nnc(C)n7-c7sc(C)c(C)c76)cc5)C4)C3)cc2)Oc2ccc(O)cc21 (stereo partly drawn) [V-17] | 50 to 500
CC1=C(c2c(F)cc(F)cc2F)C(c2ccc(N3CCC4(CCN(C(=O)Cc5ccc(C6=N[C@@H](C)c7nnc(C)n7-c7sc(C)c(C)c76)cc5)C4)CC3)cc2)Oc2ccc(O)cc21 (stereo partly drawn) [V-18] | 50 to 500
CC1=C(c2c(F)cc(F)cc2F)[C@H](c2ccc(N3CCC(CN4CCC5(CC4)CN(c4ccc(C6=N[C@@H](C)c7nnc(C)n7-c7sc(C)c(C)c76)cc4)C5)CC3)cc2)Oc2ccc(O)cc21 [V-19] | < 50
CC1=C(c2c(F)cc(F)cc2F)[C@@H](c2ccc(N3CCC(CN4CCC5(CC4)CN(c4ccc(C6=N[C@@H](C)c7nnc(C)n7-c7sc(C)c(C)c76)cc4)C5)CC3)cc2)Oc2ccc(O)cc21 [V-20] | < 50
CC1=C(c2c(F)cc(F)cc2F)C(c2ccc(N3CCN(CC4CN(c5ccc(C6=N[C@@H](C)c7nnc(C)n7-c7sc(C)c(C)c76)cc5)C4)CC3)cc2)Oc2ccc(O)cc21 (stereo partly drawn) [V-21] | < 50
CC1=C(c2c(F)cc(F)cc2F)[C@@H](c2ccc(N3CCN(CC4CCN(c5ccc(C6=N[C@@H](C)c7nnc(C)n7-c7sc(C)c(C)c76)cc5)CC4)CC3)cc2)Oc2ccc(O)cc21 [V-22] | < 50
CC1=C(c2c(F)cc(F)cc2F)[C@H](c2ccc(N3CCN(CC4CCN(c5ccc(C6=N[C@@H](C)c7nnc(C)n7-c7sc(C)c(C)c76)cc5)CC4)CC3)cc2)Oc2ccc(O)cc21 [V-23] | < 50

Test system: MCF7 cells (ATCC #HTB-22)
Test: Cellular growth inhibition assay, MCF7 cells purchased from ATCC
Format: cell-based
Conditions: Homo sapiens, MCF7, 144 h, Table 8-A; MCF7 cells purchased from ATCC; six days; CellTiter-Glo; read-out: GI50
In short: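 GI50 values come from a four-parameter fit of CellTiter-Glo 2.0 luminescence after six days of compound exposure at 37° C. Seeding density depended on the source: 225 cells/well for ECACC MCF7, 1,500 for ATCC. Medium was RPMI 1640 with 10% FBS and 0.2 U/ml insulin.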

Compound | GI50 [nM]
CC1=C(c2c(F)cc(F)cc2F)[C@H](c2ccc(OCCN3CCC[C@@]4(CCN(c5ccc(C6=N[C@@H](C)c7nnc(C)n7-c7sc(C)c(C)c76)cc5)C4)C3)cc2)Oc2ccc(O)cc21 [V-8] | 50 to 500
CC1=C(c2c(F)cc(F)cc2F)[C@@H](c2ccc(OCCN3CCC[C@]4(CCN(c5ccc(C6=N[C@@H](C)c7nnc(C)n7-c7sc(C)c(C)c76)cc5)C4)C3)cc2)Oc2ccc(O)cc21 [V-9] | 50 to 500
CC1=C(c2c(F)cc(F)cc2F)[C@@H](c2ccc(OCCN3CCC[C@@]4(CCN(c5ccc(C6=N[C@@H](C)c7nnc(C)n7-c7sc(C)c(C)c76)cc5)C4)C3)cc2)Oc2ccc(O)cc21 [V-10] | 500 to 2500
CC1=C(c2c(F)cc(F)cc2F)[C@H](c2ccc(C3CCN(CC4CCN(c5ccc(C6=N[C@@H](C)c7nnc(C)n7-c7sc(C)c(C)c76)cc5)CC4)CC3)cc2)Oc2ccc(O)cc21 [V-12] | 50 to 500
CC1=C(c2c(F)cc(F)cc2F)C(c2ccc(OCCN3CCC4(CC3)CCN(c3ccc(C5=N[C@@H](C)c6nnc(C)n6-c6sc(C)c(C)c65)cc3)C4)cc2)Oc2ccc(O)cc21 (stereo partly drawn) [V-16] | 50 to 500
CC1=C(c2c(F)cc(F)cc2F)C(c2ccc(N3CCC4(CCCN(CCOc5ccc(C6=N[C@@H](C)c7nnc(C)n7-c7sc(C)c(C)c76)cc5)C4)C3)cc2)Oc2ccc(O)cc21 (stereo partly drawn) [V-17] | 50 to 500
CC1=C(c2c(F)cc(F)cc2F)C(c2ccc(N3CCC4(CCN(C(=O)Cc5ccc(C6=N[C@@H](C)c7nnc(C)n7-c7sc(C)c(C)c76)cc5)C4)CC3)cc2)Oc2ccc(O)cc21 (stereo partly drawn) [V-18] | 50 to 500

Continued, values first:

GI50 [nM] | Compound
50 to 500 | CC1=C(c2c(F)cc(F)cc2F)C(c2ccc(N3CCN(CC4CCN(c5ccc(C6=N[C@@H](C)c7nnc(C)n7-c7sc(C)c(C)c76)cc5)CC4)CC3)cc2)Oc2ccc(O)cc21 (stereo partly drawn) [V-11]
50 to 500 | CC1=C(c2c(F)cc(F)cc2F)[C@@H](c2ccc(C3CCN(CC4CCN(c5ccc(C6=N[C@@H](C)c7nnc(C)n7-c7sc(C)c(C)c76)cc5)CC4)CC3)cc2)Oc2ccc(O)cc21 [V-13]
50 to 500 | CC1=C(c2c(F)cc(F)cc2F)[C@@H](c2ccc(N3CCN(C(=O)C4CCN(c5ccc(C6=N[C@@H](C)c7nnc(C)n7-c7sc(C)c(C)c76)cc5)CC4)CC3)cc2)Oc2ccc(O)cc21 [V-14]
50 to 500 | CC1=C(c2c(F)cc(F)cc2F)[C@H](c2ccc(N3CCN(C(=O)C4CCN(c5ccc(C6=N[C@@H](C)c7nnc(C)n7-c7sc(C)c(C)c76)cc5)CC4)CC3)cc2)Oc2ccc(O)cc21 [V-15]
< 50 | CC1=C(c2c(F)cc(F)cc2F)[C@H](c2ccc(N3CCC(CN4CCC5(CC4)CN(c4ccc(C6=N[C@@H](C)c7nnc(C)n7-c7sc(C)c(C)c76)cc4)C5)CC3)cc2)Oc2ccc(O)cc21 [V-19]
50 to 500 | CC1=C(c2c(F)cc(F)cc2F)[C@@H](c2ccc(N3CCC(CN4CCC5(CC4)CN(c4ccc(C6=N[C@@H](C)c7nnc(C)n7-c7sc(C)c(C)c76)cc4)C5)CC3)cc2)Oc2ccc(O)cc21 [V-20]
< 50 | CC1=C(c2c(F)cc(F)cc2F)C(c2ccc(N3CCN(CC4CN(c5ccc(C6=N[C@@H](C)c7nnc(C)n7-c7sc(C)c(C)c76)cc5)C4)CC3)cc2)Oc2ccc(O)cc21 (stereo partly drawn) [V-21]
50 to 500 | CC1=C(c2c(F)cc(F)cc2F)[C@@H](c2ccc(N3CCN(CC4CCN(c5ccc(C6=N[C@@H](C)c7nnc(C)n7-c7sc(C)c(C)c76)cc5)CC4)CC3)cc2)Oc2ccc(O)cc21 [V-22]
50 to 500 | CC1=C(c2c(F)cc(F)cc2F)[C@H](c2ccc(N3CCN(CC4CCN(c5ccc(C6=N[C@@H](C)c7nnc(C)n7-c7sc(C)c(C)c76)cc5)CC4)CC3)cc2)Oc2ccc(O)cc21 [V-23]

Test system: T-Rex 293 cells lacking increased expression of estrogen receptor alpha protein
Test: Cellular growth inhibition assay, T-Rex 293 cells, (−) doxycycline
Format: cell-based
Conditions: T-REx-293, 72 h, Table 7-A; T-Rex 293 cells without doxycycline (lacking increased ERα expression); 72 hours; CellTiter-Glo; read-out: (−) Dox GI50
In short: as §1

Compound | GI50 [nM]
CC1=C(c2c(F)cc(F)cc2F)[C@H](c2ccc(OCCN3CCC[C@@]4(CCN(c5ccc(C6=N[C@@H](C)c7nnc(C)n7-c7sc(C)c(C)c76)cc5)C4)C3)cc2)Oc2ccc(O)cc21 [V-8] | 500 to 2500
CC1=C(c2c(F)cc(F)cc2F)[C@@H](c2ccc(OCCN3CCC[C@]4(CCN(c5ccc(C6=N[C@@H](C)c7nnc(C)n7-c7sc(C)c(C)c76)cc5)C4)C3)cc2)Oc2ccc(O)cc21 [V-9] | 500 to 2500
CC1=C(c2c(F)cc(F)cc2F)[C@@H](c2ccc(OCCN3CCC[C@@]4(CCN(c5ccc(C6=N[C@@H](C)c7nnc(C)n7-c7sc(C)c(C)c76)cc5)C4)C3)cc2)Oc2ccc(O)cc21 [V-10] | 500 to 2500
CC1=C(c2c(F)cc(F)cc2F)C(c2ccc(N3CCN(CC4CCN(c5ccc(C6=N[C@@H](C)c7nnc(C)n7-c7sc(C)c(C)c76)cc5)CC4)CC3)cc2)Oc2ccc(O)cc21 (stereo partly drawn) [V-11] | 500 to 2500
CC1=C(c2c(F)cc(F)cc2F)[C@H](c2ccc(C3CCN(CC4CCN(c5ccc(C6=N[C@@H](C)c7nnc(C)n7-c7sc(C)c(C)c76)cc5)CC4)CC3)cc2)Oc2ccc(O)cc21 [V-12] | 50 to 500
CC1=C(c2c(F)cc(F)cc2F)[C@@H](c2ccc(C3CCN(CC4CCN(c5ccc(C6=N[C@@H](C)c7nnc(C)n7-c7sc(C)c(C)c76)cc5)CC4)CC3)cc2)Oc2ccc(O)cc21 [V-13] | 50 to 500
CC1=C(c2c(F)cc(F)cc2F)[C@@H](c2ccc(N3CCN(C(=O)C4CCN(c5ccc(C6=N[C@@H](C)c7nnc(C)n7-c7sc(C)c(C)c76)cc5)CC4)CC3)cc2)Oc2ccc(O)cc21 [V-14] | 500 to 2500
CC1=C(c2c(F)cc(F)cc2F)[C@H](c2ccc(N3CCN(C(=O)C4CCN(c5ccc(C6=N[C@@H](C)c7nnc(C)n7-c7sc(C)c(C)c76)cc5)CC4)CC3)cc2)Oc2ccc(O)cc21 [V-15] | 50 to 500
CC1=C(c2c(F)cc(F)cc2F)C(c2ccc(OCCN3CCC4(CC3)CCN(c3ccc(C5=N[C@@H](C)c6nnc(C)n6-c6sc(C)c(C)c65)cc3)C4)cc2)Oc2ccc(O)cc21 (stereo partly drawn) [V-16] | 500 to 2500
CC1=C(c2c(F)cc(F)cc2F)C(c2ccc(N3CCC4(CCCN(CCOc5ccc(C6=N[C@@H](C)c7nnc(C)n7-c7sc(C)c(C)c76)cc5)C4)C3)cc2)Oc2ccc(O)cc21 (stereo partly drawn) [V-17] | 50 to 500
CC1=C(c2c(F)cc(F)cc2F)C(c2ccc(N3CCC4(CCN(C(=O)Cc5ccc(C6=N[C@@H](C)c7nnc(C)n7-c7sc(C)c(C)c76)cc5)C4)CC3)cc2)Oc2ccc(O)cc21 (stereo partly drawn) [V-18] | 50 to 500
CC1=C(c2c(F)cc(F)cc2F)[C@H](c2ccc(N3CCC(CN4CCC5(CC4)CN(c4ccc(C6=N[C@@H](C)c7nnc(C)n7-c7sc(C)c(C)c76)cc4)C5)CC3)cc2)Oc2ccc(O)cc21 [V-19] | 500 to 2500
CC1=C(c2c(F)cc(F)cc2F)[C@@H](c2ccc(N3CCC(CN4CCC5(CC4)CN(c4ccc(C6=N[C@@H](C)c7nnc(C)n7-c7sc(C)c(C)c76)cc4)C5)CC3)cc2)Oc2ccc(O)cc21 [V-20] | 500 to 2500
CC1=C(c2c(F)cc(F)cc2F)C(c2ccc(N3CCN(CC4CN(c5ccc(C6=N[C@@H](C)c7nnc(C)n7-c7sc(C)c(C)c76)cc5)C4)CC3)cc2)Oc2ccc(O)cc21 (stereo partly drawn) [V-21] | 50 to 500
CC1=C(c2c(F)cc(F)cc2F)[C@@H](c2ccc(N3CCN(CC4CCN(c5ccc(C6=N[C@@H](C)c7nnc(C)n7-c7sc(C)c(C)c76)cc5)CC4)CC3)cc2)Oc2ccc(O)cc21 [V-22] | 500 to 2500
CC1=C(c2c(F)cc(F)cc2F)[C@H](c2ccc(N3CCN(CC4CCN(c5ccc(C6=N[C@@H](C)c7nnc(C)n7-c7sc(C)c(C)c76)cc5)CC4)CC3)cc2)Oc2ccc(O)cc21 [V-23] | 500 to 2500
